Earlier results on 27 compounds are cited in patent publication US20230149829A1, “ORAL COMPOSITIONS OF PLANTS THROUGH A DOUBLE EXTRACTION SYSTEM AND METHODS OF MAKING THE SAME” (Nulixir Inc., priority 2021, published 2023).

The conditions of series [1]: n-octanol and water; categorization assumed at pH=7 unless stated otherwise.
Series [2] has as its system many strains of fungi.

Regarding schisandroside C, the “log P” value in series [1] is about 1.6. On to tortuosomine, for which the lipophilicity (log P) in series [1] was about 3. As to `COc1ccc(CCc2cc(OC)cc(=O)o2)cc1` [7,8-dihydroyangonin], the “log P” value in series [1] was about 2.9.

`COc1cc2c(c(OC)c1OC)-c1c(cc(OC)c(OC)c1OC)C[C@H](C)[C@H](C)C2` [(−)-schisandrin A]: in series [1], the “log P” value was about 3.6. As for `COc1ccc(C23C=CC(O)CC2N(C)CC3)cc1OC` (stereo not drawn) [mesembrenol], the “log P” value in series [1] was about 2.4. Regarding methylliberine, the “log P” value in series [1] is about −0.083. As for `COc1ccc([C@@]23C=CC(=O)C[C@@H]2N(C)CC3)cc1OC` [mesembrenone], the “log P” value in series [1] is reported as about 1.3.

Consider `COc1cc(/C=C\c2ccc(OC)c(O)c2)oc(=O)c1` [11-hydroxyyangonin], for which, in series [1], the “log P” value is about 2.2. Consider `COC1=CC(=O)O[C@@H](CCc2ccc3c(c2)OCO3)C1` [7,8-dihydromethysticin], for which the “log P” value in series [1] is given as about 2.2. In the case of (R)-kawain, the “log P” value in series [1] is about 2.7. With `CC(=O)OC1C=CC(=O)N(C(=O)CCc2ccccc2)C1` (stereo not drawn) [pipermethystine], in series [1], the “log P” value is about 1.8. On to `COc1cc2c(c(OC)c1OC)-c1c(cc(OC)c(OC)c1OC)C[C@](C)(O)[C@@H](C)C2` [(+)-schisandrin], for which the “log P” value in series [1] is recorded as about 5. With `CC(C)=CCC[C@](C)(O[C@@H]1O[C@H](CO)[C@@H](O)[C@H](O)[C@H]1O)[C@H]1CC[C@]2(C)[C@@H]1[C@H](O)C[C@@H]1[C@@]3(C)CC[C@H](O)C(C)(C)[C@@H]3[C@@H](O[C@@H]3O[C@H](CO)[C@@H](O)[C@H](O)[C@H]3O)C[C@]12C` [ginsenoside rg1], the “log P” value in series [1] is listed as about 0.8. For the compound `CC1=C(CO)C(=O)O[C@@H]([C@@H](C)[C@H]2CC[C@H]3[C@@H]4C[C@H](Cl)[C@]5(O)[C@@H](O)C=CC(=O)[C@]5(C)[C@H]4CC[C@]23C)C1` [6a-chloro-5b-hydroxywithaferin A], the “log P” value in series [1] is recorded as about 3.2. Regarding `CC(C)=C[C@H]1C[C@](C)(O)[C@H]2[C@H]3CC[C@@H]4[C@@]5(C)CC[C@H](O[C@@H]6O[C@H](CO)[C@@H](O)[C@H](O[C@@H]7O[C@H](CO)[C@@H](O)[C@H](O)[C@H]7O)[C@H]6O[C@@H]6O[C@@H](CO)[C@H](O)[C@H]6O)C(C)(C)[C@@H]5CC[C@@]4(C)[C@@]34CO[C@@]2(C4)O1` [bacoside A3], the “log P” value in series [1] is about 2.1. For `COc1ccc([C@@]23CCC(=O)C[C@@H]2N(C)CC3)cc1OC` [mesembrine], the “log P” value in series [1] is reported as about 1.5. Take hericerin: the “log P” value in series [1] is given as about 6.4. As to `CC(C)=CCC[C@](C)(O[C@@H]1O[C@H](CO[C@@H]2O[C@H](CO)[C@@H](O)[C@H](O)[C@H]2O)[C@@H](O)[C@H](O)[C@H]1O)[C@H]1CC[C@]2(C)[C@@H]1[C@H](O)C[C@@H]1[C@@]3(C)CC[C@H](O[C@@H]4O[C@H](CO)[C@@H](O)[C@H](O)[C@H]4O[C@@H]4O[C@H](CO)[C@@H](O)[C@H](O)[C@H]4O)C(C)(C)[C@@H]3CC[C@]12C` [ginsenoside rb1], in series [1], the “log P” value was about −1. For the compound `CC(C)=C[C@@H]1CO[C@]23C[C@]4(CO2)[C@H](CC[C@@H]2[C@@]5(C)CC[C@H](O[C@@H]6OC[C@H](O)[C@H](O[C@@H]7O[C@H](CO)[C@@H](O)[C@H](O)[C@H]7O)[C@H]6O[C@@H]6O[C@@H](CO)[C@H](O)[C@H]6O)C(C)(C)[C@@H]5CC[C@]24C)[C@H]3[C@@]1(C)O` [bacopasaponin C], the “log P” value in series [1] is on record as about 2. Regarding `N#C[C@@]1(O[C@@H]2O[C@H](CO)[C@@H](O)[C@H](O)[C@H]2O)C=C[C@@H](O)C1` [tetraphyllin B], the “log P” value in series [1] is reported as about −2.5. For the compound bacopaside B, the “log P” value in series [1] is on record as about 2.8. For `COC1=CC(=O)OC(/C=C/c2ccc(OC)cc2)C1` (stereo not drawn) [5,6-dihydroyangonin], the “log P” value in series [1] is recorded as about 2.5. Consider `O=CC=Cc1ccccc1` [Cinnamaldehyde], for which the “inhibitory activity against fungi” value in series [2] is on record as “strong inhibitory activity”. `COc1cc([C@H]2Oc3cc(O)c4c(=O)c(O)c(-c5ccc(O)cc5)oc4c3O[C@@H]2CO)ccc1O` [rhodiolin]: in series [1], the “log P” value is recorded as about 2. Regarding `CC(C)=C[C@H]1C[C@](C)(O)[C@@H]2[C@H]3CC[C@@H]4[C@@]5(C)CC[C@H](O[C@@H]6OC[C@H](O)[C@H](O[C@@H]7O[C@H](CO)[C@@H](O)[C@H](O)[C@H]7O)[C@H]6O[C@@H]6O[C@@H](CO)[C@H](O)[C@H]6O)C(C)(C)[C@@H]5CC[C@@]4(C)[C@@]34CO[C@@]2(C4)O1` [bacopaside X], the “log P” value in series [1] is listed as about 2.2. As to `COc1cc2c(c(OC)c1OC)-c1c(cc3c(c1OC)OCO3)CC(C)C(C)C2` (single isomer, unassigned; (-)) [(−)-schisandrin B], in series [1], the “log P” value is about 4. On to herinacine A, for which the “log P” value in series [1] was about 2.5.

One may read the log P as a log measure of how a compound divides between an organic and an aqueous phase.
